Series [1] has as its system all strains, including AD/pABC3. The series is described as follows: Liquid MIC of efflux pump inhibitors alone.
For series [2], the system named is AD/pABC3 (empty vector control, sensitive strain). As to conditions: cited from earlier work.
The next series has as its target wt Cdr1 ATPase activity (Candida albicans, UniProt Q5ANA3). The series is described as follows: biochemical. Conditions: for Vmax of ATPase activity in the presence of inhibitor: CDR1; for type of inhibition of ATPase activity (Lineweaver-Burk): wt Cdr1.
Series [3] has as its target Cdr1-G521R (FLC transport) (Candida albicans, UniProt Q5ANA3, G521R). The series is described as follows: Agarose diffusion FLC chemosensitization assay. Type of series: cell-based. Conditions: 0.25× MICFLC, disc. The method, then: (§1) Compounds were tested for inhibition of FLC transport by yeast strains overexpressing Cdr1 or Cdr1 mutations.
Series [4] concerns the target Cdr1-T1355N (FLC transport) (Candida albicans, UniProt Q5ANA3, T1355N). The series is described as follows: Agarose diffusion FLC chemosensitization assay. Type of series: cell-based. Conditions: 0.25× MICFLC, disc. The method, then: as §1
Series [5] addresses Cdr1-M639I (FLC transport) (Candida albicans, UniProt Q5ANA3, M639I). The series is described as follows: Agarose diffusion FLC chemosensitization assay. In kind it is cell-based. As to conditions: 0.25× MICFLC, disc. On the procedure: as §1
Series [6] addresses Cdr1-A713P (FLC transport) (Candida albicans, UniProt Q5ANA3, A713P). The series is described as follows: Agarose diffusion FLC chemosensitization assay. Conditions: 0.25× MICFLC, disc. Type of series: cell-based. On the procedure:
as §1

In series [7] the target is wt Cdr1 (FLC efflux of AD/CDR1 cells) (Candida albicans, UniProt Q5ANA3). As to conditions: for lowest MICFLC in the presence of inhibitor: FLC 5 to 640 mg/L tested.
In another series the test system is AD/CDR1-T1355N. The series is described as follows: MIC, modified CLSI M27-A3 broth microdilution. For orientation: In broth dilution the organism is exposed to a series of concentrations in liquid medium.
The test system of another series is AD/CDR1-G521R. The series is described as follows: MIC, modified CLSI M27-A3 broth microdilution.
A further series has as its system AD/CDR1-A713P. The series is described as follows: MIC, modified CLSI M27-A3 broth microdilution.
Series [8] deals with AD/pABC3 (empty vector control, sensitive strain).
The test system of a further series is AD/CDR1-M639I. The series is described as follows: MIC, modified CLSI M27-A3 broth microdilution.
In series [9] the test system is AD/CDR1 (AD1-8u- overexpressing wt Cdr1). The series is described as follows: MIC, modified CLSI M27-A3 broth microdilution. Conditions: Saccharomyces cerevisiae, read-out: MIC (drug susceptibility).
In series [10] the test system is AD/pABC3 (empty vector control, sensitive strain). The series is described as follows: microbe, parasite or virus in culture. Conditions: Saccharomyces cerevisiae, read-out: MIC (drug susceptibility).
Series [11] addresses wt Cdr1 (FLC transport of AD/CDR1 cells) (Candida albicans, UniProt Q5ANA3). The series is described as follows: Agarose diffusion FLC chemosensitization assay. Conditions: inhibitor-only control. In kind it is cell-based. On the procedure: as §1
Setting [12] is: CDR1 (wt), from Fig. 4, read-out: IC50 for inhibition of Cdr1 ATPase activity.
[13] abbreviates: Saccharomyces cerevisiae, read-out: MIC (drug susceptibility).

≈ marks a conversion by molar mass, not a printed value. Read-outs that look alike come from different tables or passages of the source. Some results are limits rather than exact numbers.

wt Cdr1 ATPase activity, sequence (Q5ANA3 whole entry, the tested form may be a part): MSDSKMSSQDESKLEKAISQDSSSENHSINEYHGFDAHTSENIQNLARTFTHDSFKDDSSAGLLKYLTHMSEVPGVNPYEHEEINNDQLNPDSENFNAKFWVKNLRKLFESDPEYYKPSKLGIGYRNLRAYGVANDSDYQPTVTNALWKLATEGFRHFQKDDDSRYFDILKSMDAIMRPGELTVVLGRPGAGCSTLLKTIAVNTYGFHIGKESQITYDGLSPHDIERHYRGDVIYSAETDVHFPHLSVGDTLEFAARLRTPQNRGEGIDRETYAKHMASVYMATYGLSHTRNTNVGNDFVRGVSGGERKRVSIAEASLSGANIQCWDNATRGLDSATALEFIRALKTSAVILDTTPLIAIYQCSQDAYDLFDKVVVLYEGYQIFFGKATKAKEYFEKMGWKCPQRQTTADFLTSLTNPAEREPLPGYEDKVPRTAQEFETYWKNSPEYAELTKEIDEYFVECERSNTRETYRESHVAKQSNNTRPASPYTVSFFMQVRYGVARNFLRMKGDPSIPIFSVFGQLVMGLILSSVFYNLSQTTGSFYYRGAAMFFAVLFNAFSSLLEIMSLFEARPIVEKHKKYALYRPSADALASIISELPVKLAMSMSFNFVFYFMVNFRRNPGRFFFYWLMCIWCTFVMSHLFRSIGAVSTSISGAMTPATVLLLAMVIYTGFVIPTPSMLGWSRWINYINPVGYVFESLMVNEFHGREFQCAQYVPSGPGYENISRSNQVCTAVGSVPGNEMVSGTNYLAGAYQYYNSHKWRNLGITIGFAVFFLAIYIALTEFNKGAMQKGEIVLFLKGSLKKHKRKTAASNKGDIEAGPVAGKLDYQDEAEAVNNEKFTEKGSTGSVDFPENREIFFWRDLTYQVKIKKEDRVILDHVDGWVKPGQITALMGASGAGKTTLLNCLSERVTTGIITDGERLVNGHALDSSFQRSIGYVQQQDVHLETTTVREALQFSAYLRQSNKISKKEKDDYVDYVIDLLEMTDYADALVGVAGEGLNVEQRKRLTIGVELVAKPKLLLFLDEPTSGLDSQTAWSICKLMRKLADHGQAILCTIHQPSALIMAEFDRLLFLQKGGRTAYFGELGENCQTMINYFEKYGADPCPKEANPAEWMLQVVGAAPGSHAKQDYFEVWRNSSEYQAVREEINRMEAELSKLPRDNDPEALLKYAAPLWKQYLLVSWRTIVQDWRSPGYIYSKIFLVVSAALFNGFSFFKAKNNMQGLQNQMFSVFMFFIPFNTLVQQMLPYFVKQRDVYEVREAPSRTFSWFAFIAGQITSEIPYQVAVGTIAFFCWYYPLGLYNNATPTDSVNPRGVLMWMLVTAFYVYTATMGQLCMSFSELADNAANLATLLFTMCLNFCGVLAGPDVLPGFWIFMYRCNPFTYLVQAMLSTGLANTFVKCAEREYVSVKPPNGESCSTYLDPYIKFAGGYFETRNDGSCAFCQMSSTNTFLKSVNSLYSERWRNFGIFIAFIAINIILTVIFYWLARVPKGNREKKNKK
wt Cdr1 (FLC efflux of AD/CDR1 cells), sequence (Q5ANA3 whole entry): as the sequence (Q5ANA3 whole entry, the tested form may be a part) above
Cdr1-A713P (FLC transport), sequence (Q5ANA3 whole entry A713P, the tested form may be a part): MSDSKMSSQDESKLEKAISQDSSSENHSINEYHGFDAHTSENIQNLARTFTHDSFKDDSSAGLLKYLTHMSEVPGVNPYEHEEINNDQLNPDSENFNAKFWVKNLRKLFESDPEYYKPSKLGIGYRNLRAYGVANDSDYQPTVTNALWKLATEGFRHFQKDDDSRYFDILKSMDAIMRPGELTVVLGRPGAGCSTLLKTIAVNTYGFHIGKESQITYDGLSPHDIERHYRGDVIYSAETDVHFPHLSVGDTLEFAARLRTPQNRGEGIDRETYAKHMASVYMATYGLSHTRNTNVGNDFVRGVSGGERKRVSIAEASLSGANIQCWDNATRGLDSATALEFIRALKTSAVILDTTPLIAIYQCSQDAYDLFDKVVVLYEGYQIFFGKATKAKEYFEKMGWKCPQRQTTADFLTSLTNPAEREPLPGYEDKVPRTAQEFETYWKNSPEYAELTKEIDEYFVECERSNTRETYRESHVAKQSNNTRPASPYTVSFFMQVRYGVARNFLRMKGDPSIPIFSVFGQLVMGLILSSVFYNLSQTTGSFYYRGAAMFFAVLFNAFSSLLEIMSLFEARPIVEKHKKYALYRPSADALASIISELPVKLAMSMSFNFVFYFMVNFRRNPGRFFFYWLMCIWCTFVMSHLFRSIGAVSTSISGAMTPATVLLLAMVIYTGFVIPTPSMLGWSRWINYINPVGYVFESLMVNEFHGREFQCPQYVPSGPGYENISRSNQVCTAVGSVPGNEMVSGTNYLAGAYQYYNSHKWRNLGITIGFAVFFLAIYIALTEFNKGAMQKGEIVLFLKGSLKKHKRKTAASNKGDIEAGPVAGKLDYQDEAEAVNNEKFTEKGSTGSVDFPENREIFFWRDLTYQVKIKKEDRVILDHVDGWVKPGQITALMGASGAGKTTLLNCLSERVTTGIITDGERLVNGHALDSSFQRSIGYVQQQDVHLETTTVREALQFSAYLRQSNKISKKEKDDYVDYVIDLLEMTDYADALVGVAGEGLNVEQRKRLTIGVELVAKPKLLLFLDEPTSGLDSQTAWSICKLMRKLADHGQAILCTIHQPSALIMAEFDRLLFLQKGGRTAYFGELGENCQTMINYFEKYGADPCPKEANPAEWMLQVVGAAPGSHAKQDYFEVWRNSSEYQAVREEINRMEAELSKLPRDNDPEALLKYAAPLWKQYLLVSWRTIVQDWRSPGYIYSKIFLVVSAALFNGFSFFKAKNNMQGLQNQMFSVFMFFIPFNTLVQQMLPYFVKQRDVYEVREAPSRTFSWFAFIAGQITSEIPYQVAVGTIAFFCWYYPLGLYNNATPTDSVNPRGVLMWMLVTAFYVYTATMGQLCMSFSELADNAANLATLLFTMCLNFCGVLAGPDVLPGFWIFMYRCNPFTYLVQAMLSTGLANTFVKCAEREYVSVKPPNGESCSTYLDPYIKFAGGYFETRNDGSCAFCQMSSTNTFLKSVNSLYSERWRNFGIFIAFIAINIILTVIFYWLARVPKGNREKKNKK

As to `CC(C)[C@H]1C(=O)O[C@H](C(C)C)C(=O)N(C)[C@@H](C(C)C)C(=O)O[C@H](C(C)C)C(=O)N(C)[C@@H](C(C)C)C(=O)O[C@H](C(C)C)C(=O)N1C` [Enniatin B, enniatin B], the MIC in series [1] (Saccharomyces cerevisiae, read-out: MIC of inhibitor alone) is 10 µM. Moreover, the “synergy with the Cdr1 substrates FLC and R6G” value (shortened to “synergy”) in series [2] is given as “no synergy”. The IC50 – broadly, the point on the concentration scale where inhibition reaches its midpoint – against wt Cdr1 ATPase activity turned out to be 180 nM; in series [7] it was 160 nM. Besides, the affinity on wt Cdr1 ATPase activity, expressed as Ki, was 200 ± 30 nM. Also, the “Vmax of ATPase activity in the presence of inhibitor” value (shortened to “Vmax … of inhibitor”) at wt Cdr1 ATPase activity ([I] 0.1 μM) was 182 nmol/min/mg; on wt Cdr1 ATPase activity ([I] 0.5 μM) it was 98 nmol/min/mg. Moreover, the “type of inhibition of ATPase activity (Lineweaver-Burk)” value (shortened to “type of inhibition of ATPase activity”) on wt Cdr1 ATPase activity is “noncompetitive inhibition”. Also, the “susceptibility of FLC transport to inhibitor on agar” value in series [3] is on record as “resistant”; in series [4], “substantial resistance”; in series [5], “substantial resistance”; in series [6], “remained susceptible”. For the same molecule, the “FICI (inhibitor/FLC combination)” value in series [7] was under 0.13. For the same molecule, in series [7] (CDR1), the “lowest inhibitor concentration necessary to achieve the lowest MICFLC” value (shortened to “lowest inhibitor concentration necessary”) was determined as 1.25 µM. Moreover, in series [7] (CDR1), the “lowest MICFLC in the presence of inhibitor” value (from here on “lowest MICFLC … of inhibitor”) was 5 mg/L.

Turning to `C=CC[C@@H]1/C=C(\C)C[C@H](C)C[C@H](OC)[C@H]2O[C@@](O)(C(=O)C(=O)N3CCCC[C@H]3C(=O)O[C@H](/C(C)=C/[C@@H]3CC[C@@H](O)[C@H](OC)C3)[C@H](C)[C@@H](O)CC1=O)[C@H](C)C[C@@H]2OC` [FK506], in [2], the “synergy” value is “no synergy”. Also, the inhibition constant Ki (as a rule, a dissociation constant, usually derived from enzyme kinetics or from competition with a known ligand) at wt Cdr1 ATPase activity (CDR1 (wt), Dixon plot, read-out: Ki (Cdr1 ATPase activity)) is 1210 ± 240 nM. In addition, the IC50 on wt Cdr1 ATPase activity (setting [12]) stood at 1250 nM; in series [7], 2500 nM. Also, the “Vmax … of inhibitor” value is on record as 233 nmol/min/mg on wt Cdr1 ATPase activity ([I] 0.5 μM) and 164 nmol/min/mg at wt Cdr1 ATPase activity ([I] 1.0 μM). Moreover, on wt Cdr1 ATPase activity, the “type of inhibition of ATPase activity” value is given as “noncompetitive inhibition”. The “susceptibility of FLC transport to inhibitor on agar” value is “resistant” in series [3], “remained susceptible” in series [4], “remained susceptible” in [5] and “resistant” in [6]. The “FICI (inhibitor/FLC combination)” value in [7] was under 0.26. The “lowest inhibitor concentration necessary” value in [7] (CDR1) was determined as 40 µM. In addition, the “lowest MICFLC … of inhibitor” value in [7] (CDR1) is reported as 5 mg/L.

In the case of `OC(Cn1cncn1)(Cn1cncn1)c1ccc(F)cc1F` [FLC, fluconazole], the MIC in the series with AD/CDR1-T1355N (setting [13]) stood at 320 µg/mL (≈ 1040 µM); in the series on AD/CDR1-G521R (setting [13]) it was 160 µg/mL (≈ 522 µM); in the series on AD/CDR1-A713P (setting [13]), 320 µg/mL (≈ 1040 µM); in the series with AD/CDR1-M639I (setting [13]) it was 640 µg/mL (≈ 2090 µM); in series [9] it was 640 µg/mL (≈ 2090 µM); in series [10], 1.25 µg/mL (≈ 4.08 µM). For the same molecule, the “Fold-reduced resistance level (MIC) relative to AD/CDR1” value is listed as 2 fold with AD/CDR1-T1355N (T1355N, 1 = no change); 4 fold in the series with AD/CDR1-G521R (G521R, 1 = no change); 2 fold in the series with AD/CDR1-A713P (A713P, 1 = no change); 1 fold with AD/CDR1-M639I (M639I, 1 = no change). At wt Cdr1 ATPase activity, the “effect of substrate on ATPase activity” value was “no effect”. The “MIC (drug susceptibility)” value in series [8] is reported as 1 mg/L (≈ 3.27 µM). The molecule also displayed an MICFLC in series [7] of 640 mg/L.

beauvericin: the “synergy” value in series [2] is given as “no synergy”. For the same molecule, the “Vmax … of inhibitor” value is 132 nmol/min/mg at wt Cdr1 ATPase activity ([I] 0.2 μM) and 63 nmol/min/mg at wt Cdr1 ATPase activity ([I] 0.5 μM). The “type of inhibition of ATPase activity” value at wt Cdr1 ATPase activity is reported as “noncompetitive inhibition”. Also, the figures for the “susceptibility of FLC transport to inhibitor on agar” value in series [3], in series [4] and in series [6] were “resistant”, “slightly more resistant” and “remained susceptible”, respectively. In series [7], the “FICI (inhibitor/FLC combination)” value is under 0.13. Besides, the “lowest inhibitor concentration necessary” value in [7] (CDR1) turned out to be 1.25 µM. Also, the “lowest MICFLC … of inhibitor” value in series [7] (CDR1) is listed as 5 mg/L.

Regarding milbemycin α25, the “MIC of inhibitor alone” value in series [1] (all strains, including AD/pABC3) was over 20 µM. The IC50 on wt Cdr1 ATPase activity (setting [12]) stood at 2800 nM; in series [7] (read-out: IC50 for inhibition of FLC efflux (MICFLC), CDR1, live whole cells, from Fig. 3B), 80 nM. In addition, the “susceptibility of FLC transport to inhibitor on agar” value in series [3] is “more resistant”; in series [4] it was “most resistance”; in [5] it was “most resistance”; in [6] it was “resistant”. In addition, the “toxicity of inhibitor alone on agar without FLC” value in [11] was “slight growth inhibitory zone”. Further, the “FICI (inhibitor/FLC combination)” value in series [7] is recorded as under 0.02; in series [7] (listed as milbemycin α25), 0.02. Also, the “lowest inhibitor concentration necessary” value in series [7] (CDR1) came out at 0.63 µM. Besides, the “lowest MICFLC … of inhibitor” value in [7] (CDR1) worked out at 5 mg/L.

The values are drawn from publication PMC8765293, “Inhibitor-Resistant Mutants Give Important Insights into Candida albicans ABC Transporter Cdr1 Substrate Specificity and Help Elucidate Efflux Pump Inhibition” (Antimicrobial Agents and Chemotherapy, 2022).
